The record followed here is US12337005B2, “Methods of treating thrombosis” (UNIVERSITY OF IOWA RESEARCH FOUNDATION, priority 2020, dated 2025).

The structures appear in SMILES notation.

Data set [1] deals with murine platelets. Kind of data set: In vitro platelet aggregation, mouse platelet-rich plasma. The format is cell-based. The settings on record: convulxin, collagen, PAR4 and ADP, ML265 50 and 100 μM. The protocol: (§1) Platelet rich plasma (PRP) or washed platelets (2×10^8/ml) treated with vehicle (DMSO) or ML265 (50 and 100 μM) were stirred (1200 rpm) at 37° C. for 2 min in a whole blood/optical lumi-aggregometer (Chrono-log; model 700-2) before the addition of agonists (convulxin, collagen, thrombin, PAR4, TRAP (PAR1 agonist) or adenosine diphosphate [ADP]). Aggregation was measured as percent change in light transmission, where 100% refers to transmittance through the blank sample (PRP/Buffer). Platelet dense granule secretion was determined by measuring the release of ATP using luciferin-luciferase reagent. To examine the effect of ML265 on ATP secretion, washed platelets were pretreated with vehicle (DMSO) or ML265 (50 and 100 μM) for 10 minutes before stimulation with various agonists. ATP release was performed in a lumi-aggregometer (Chrono-log; model 700-2) at 37° C.

In a further data set the test system is integrin αIIbβ3. Kind of data set: Integrin αIIbβ3 activation (JONA binding), mouse platelets. The format is cell-based. The following applies: convulxin and PAR4-induced.
In data set [2] the test system is murine platelets. Kind of data set: Clot retraction, mouse platelet-rich plasma. The settings on record: thrombin 0.25 U/ml, ML265 50 and 100 μM. The format is cell-based. The procedure:
To measure thrombin-stimulated fibrin clot retraction PRP was treated with ML265 (50 and 100 μM) or vehicle control (DMSO) for 10 minutes. Tyrode buffer was added to test tubes, along with red blood cells, to allow visualization of the clot. This was followed by the addition of PRP. Clot formation was initiated by adding thrombin (final concentration 0.25 U/ml) to the test tubes. Photographs were taken every 15 minutes and the assay was terminated after 60 minutes at which time the clot in the vehicle-treated samples were seen to have retracted completely. Clot area was analyzed using Image J software from NIH (Bethesda, MD, USA).

For data set [3], the system named is platelets from obese mice. As to the kind of experiment: Platelet aggregation, platelets from obese mice. The format is cell-based, mouse. The following applies: collagen (1 μg/mL) and thrombin (0.02 U/mL).
Excerpt: FIGS. 16A-16D. ML265 inhibits platelet aggregation and arterial thrombosis in pre-existing comorbid condition of obesity. Wild-type (C57BL6/J) mice fed a chow and high-fat diet (Cat #TD.06414, Envigo, 60% Kcal from fat) for 4 months. (A) Blood glucose levels (B) Blood glucose levels during the insulin tolerance test. Statistics (A & B): Two-way ANOVA with Tukey's multiple comparisons test (*P<0.05, **P<0.01, ***P<0.001, ****P<0.0001; n=10 mice/group). (C) Platelet rich plasma or washed platelets from obese mice were pretreated with vehicle or ML265 and stimulated with agonists including collagen (1 μg/mL) and thrombin (0.02 U/mL). The results are represented as percent change light transmission after subtracting the blank (platelet poor plasma/Tyrode's buffer). […]
as §1, with “To examine the effect of ML265 on ATP secretion, washed platelets were pretreated with vehicle (DMSO) or ML265 (50 and 100 μM) for 10 minutes before stimulation with various agonists. ATP release was performed in a lumi-aggregometer (Chrono-log; model 700-2) at 37° C.” left out

Data set [4] relates to human platelets. As to the kind of experiment: Annexin V-affinity assay, human platelets. The format is cell-based. The procedure:
Mouse and human washed platelets (1×10^8/ml) were pre-incubated with different concentrations of ML265 ([…]). Washed platelets activated with thrombin (0.5 U/ml)+convulxin (100 ng/ml) were used as a positive control. The samples were added to 1× Annexin V-binding buffer (BD Biosciences). Following this, annexin V-FITC antibody was added to each sample, gently mixed, and incubated at room temperature for 15 minutes in the dark. After incubation, 1× Annexin-binding buffer was added to each tube and analyzed by a Becton Dickinson FACSCalibur flow cytometer.

The subject of another data set is male mice. Kind of data set: Tail bleeding assay. The format is in vivo, mouse. The following applies: male mice pretreated with ML265. The protocol: Initially ML265 dissolved in DMSO was mixed with 200 μl of deionized water and administered intra-peritoneally to the at a dose of 25 and 50-mg/Kg body weight. In vivo thrombosis and tail transection assays were performed 10 minutes after administration of ML265 or vehicle infusion by a person who was blinded to the drug and vehicle infusion.
Tail-transection bleeding time was measured. Briefly, mice (approximately 8 weeks of age) were anesthetized with 100-mg/kg ketamine and 10-mg/kg xylazine and placed on a heating pad warmed at 37° C., and a 3 mm segment of the tail was amputated with a sharp scalpel blade. The tail was immediately immersed in saline (at 37° C.), and the time taken for the stream of blood to stop for more than 30 seconds was defined as the bleeding time.

The next data set concerns mouse platelets. As to the kind of experiment: Glucose uptake assay, mouse platelets. The format is cell-based. The settings on record: mouse platelets stimulated with convulxin or thrombin. The protocol: Glucose uptake was determined in activated versus non-activated platelets using 10 mM ^14C-2-deoxy-glucose. Washed platelets (2×10^8/mL) treated with vehicle (DMSO) or ML265 (50 and 100 μM) were incubated in 1× Tyrode buffer and stimulated with convulxin or thrombin for 10 minutes, placed on ice and then centrifuged at 4000 rpm for 5 minutes. The pellets were washed with cold 1×PBS and solubilized in 1N NAOH. Radioactive counts were determined using a Perkin Elmer TriCarb 2800TR liquid scintillation counter.

In data set [5] the test system is human platelets. Kind of data set: In vitro platelet aggregation, human platelet-rich plasma. The format is cell-based. The settings on record: convulxin, collagen, TRAP and ADP, ML265 50 and 100 μM. The procedure:
as §1

Data set [6] relates to human platelets. Kind of data set: Metabolomic analysis of human platelets. The format is cell-based. The procedure: Human washed platelets (3×10^8 cells in 300 μl) were treated with ML265 (100 μM) or DMSO for 10 mins and stimulated by convulxin for 10 minutes. Cells were then fixed by adding 80% methanol and sent to Metabolon Inc. (Morrisville, NC, USA) for metabolomic analysis. Briefly, samples were homogenized and subjected to methanol extraction then split into aliquots for analysis by ultra-high-performance liquid chromatography/mass spectrometry (UHPLC/MS) in the positive (two methods) and negative (two methods) mode. Metabolites were then identified by automated comparison of ion features to a reference library of chemical standards followed by visual inspection for quality control as previously described (Dehaven et al., 2010). Metaboanalyst 4.0 feature PatternHunter was used for finding the metabolites showing correlation (≥0.5) with specific trends (Xia et al., 2009). The metabolites obtained after PatternHunter analysis have been represented as a heatmap. Furthermore, to understand the functional role of the changes in concentration of these metabolites, the pathway analysis was performed using Metaboanalyst 4.0. The Global Ancova and Relative-betweenness Centrality topological measures were used to identify the highly impacted pathways with KEGG human metabolic library as the reference. The False Discovery Rate corrected pathway terms with P≤0.05 were considered significant.

Setting [7] is: ML265 100 μM, convulxin-stimulated human platelets.

For the molecule `Cn1c2cc([S+](C)[O-])sc2c2cnn(Cc3cccc(N)c3)c(=O)c21` (stereo not drawn) [ML265, 6-[(3-aminophenyl)methyl]-4,6-dihydro-4-methyl-2-(methylsulfinyl)-5H-thieno[2′,3′:4,5]pyrrolo[2,3-d]pyridazine-5-one], the stimulus-dependent platelet aggregation entry in the data set on murine platelets [1] was “reduced”. The “activation of αIIbβ3 (JONA binding)” value with integrin αIIbβ3 is listed as “decreased”. Further, the clot retraction result in the data set with murine platelets [2] was “significant decrease”. The “platelet aggregation in pre-existing comorbid condition of obesity” value in data set [3] is listed as “inhibited”. Also, in the data set on human platelets [4], the “concentration not inducing phosphatidyl serine surface expression (annexin V)” value is at most 300 µM. Further, in the data set with human platelets [4] (increasing concentrations of ML265), the “apoptosis in resting platelets (Annexin V binding)” value was “does not induce”. In addition, in the data set with male mice, the “mean time to cessation of bleeding (tail-transection bleeding time) vs vehicle” value is “comparable”. The glucose uptake result with mouse platelets is recorded as “reduced”. Further, in the data set with human platelets [5], the stimulus-dependent platelet aggregation result is “reduced”. Besides, in the data set on human platelets [6] (setting [7]), the “levels of arachidonic acid and 12-HETE” value is recorded as “altered”; the “metabolites in the glycolytic pathway, including glucose uptake and lactate production” value is on record as “altered”. Also, the “level of free fatty acids and palmitate” value with human platelets [6] (ML265 100 μM, human platelets) is on record as “altered”. The palmitate result in the data set on human platelets [6] (ML265 pre-treated activated human platelets compared to control) was “downregulated”. The arachidonate level result with human platelets [6] (convulxin-stimulated human platelets pre-treated with ML265, vs convulxin alone) is recorded as “further decrease”. For the same molecule, the glycerophospholipid metabolism entry in the data set with human platelets [6] (pre-treatment of human platelets with ML265) is “downregulated”.
